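Method: 48-hour compound exposure of cells in 96-well plates, five concentrations, linear interpolation of endpoints. GI50: concentration for 50% inhibition of growth. Definition used: TGI = concentration required for complete inhibition of growth.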
Legend:
Test in all cases: NCI-60 cell line screen, 48 h
SK-MEL-28 melanoma = tested on: SK-MEL-28 melanoma
MDA-MB-231 breast = tested on: MDA-MB-231 breast
CCRF-CEM leukemia = tested on: CCRF-CEM leukemia
NCI-H460 lung = tested on: NCI-H460 lung
SF-539 CNS = tested on: SF-539 CNS
IGROV1 ovarian = tested on: IGROV1 ovarian
HOP-62 NSCLC = tested on: HOP-62 NSCLC
UO-31 renal = tested on: UO-31 renal
SN12C renal = tested on: SN12C renal
HCT-15 colon = tested on: HCT-15 colon
SK-MEL-2 melanoma = tested on: SK-MEL-2 melanoma
U251 CNS = tested on: U251 CNS
SW-620 colon = tested on: SW-620 colon
NCI-H226 lung = tested on: NCI-H226 lung
SNB-75 CNS = tested on: SNB-75 CNS
A498 renal = tested on: A498 renal
UACC-257 melanoma = tested on: UACC-257 melanoma
HCC-2998 colon = tested on: HCC-2998 colon
OVCAR-8 ovarian = tested on: OVCAR-8 ovarian
MOLT-4 leukemia = tested on: MOLT-4 leukemia
UACC-62 melanoma = tested on: UACC-62 melanoma
TK-10 renal = tested on: TK-10 renal
ACHN renal = tested on: ACHN renal
HT29 colon = tested on: HT29 colon
OVCAR-3 ovarian = tested on: OVCAR-3 ovarian
SK-MEL-5 melanoma = tested on: SK-MEL-5 melanoma
M14 melanoma = tested on: M14 melanoma
COLO 205 colon = tested on: COLO 205 colon
OVCAR-5 ovarian = tested on: OVCAR-5 ovarian
NCI/ADR-RES ovarian = tested on: NCI/ADR-RES ovarian

## COc1cnc2c(c1)C(=O)c1c-2n(CCCNC(C)C)c(=O)c2cc(OC)c(OC)cc12
SK-MEL-28 melanoma
  GI50: 16 µM
  TGI: 29.7 µM
MDA-MB-231 breast
  GI50: 3.35 µM
  TGI: 17.9 µM
CCRF-CEM leukemia
  GI50: 0.256 µM
  TGI: 89.9 µM
NCI-H460 lung
  GI50: 0.3 µM
  TGI: 11.9 µM
SF-539 CNS
  GI50: 1.36 µM
  TGI: 3.76 µM
IGROV1 ovarian
  GI50: 10.8 µM
  TGI: 23.3 µM
HOP-62 NSCLC
  GI50: 0.702 µM
  TGI: 7.94 µM
UO-31 renal
  GI50: 5.88 µM
  TGI: 19.7 µM
SN12C renal
  GI50: 4.19 µM
  TGI: > 100 µM
HCT-15 colon
  GI50: 1.86 µM
  TGI: 16.3 µM
SK-MEL-2 melanoma
  GI50: 18.5 µM
  TGI: 37.8 µM
U251 CNS
  GI50: 0.667 µM
  TGI: 17.2 µM
SW-620 colon
  GI50: 0.946 µM
  TGI: 20.5 µM
NCI-H226 lung
  GI50: 2.55 µM
  TGI: 16.6 µM
SNB-75 CNS
  GI50: 0.155 µM
  TGI: 7.49 µM
A498 renal
  GI50: 14.2 µM
  TGI: 27.5 µM
UACC-257 melanoma
  GI50: 12 µM
  TGI: 25.2 µM
HCC-2998 colon
  GI50: 3.09 µM
  TGI: 16.8 µM
OVCAR-8 ovarian
  GI50: 6.05 µM
  TGI: 22.1 µM
MOLT-4 leukemia
  GI50: 0.107 µM
  TGI: 5.59 µM
UACC-62 melanoma
  GI50: 2.43 µM
  TGI: 16.1 µM
TK-10 renal
  GI50: 14.2 µM
  TGI: 28 µM
ACHN renal
  GI50: 1.75 µM
  TGI: 13.7 µM
HT29 colon
  GI50: 1.43 µM
  TGI: 10.1 µM
OVCAR-3 ovarian
  GI50: 8.99 µM
  TGI: 22.6 µM
SK-MEL-5 melanoma
  GI50: 1.7 µM
  TGI: 11.9 µM
M14 melanoma
  GI50: 4.91 µM
  TGI: 20 µM
COLO 205 colon
  GI50: 5.74 µM
  TGI: 22.6 µM
OVCAR-5 ovarian
  GI50: 12.3 µM
  TGI: 25.5 µM
NCI/ADR-RES ovarian
  GI50: 1.73 µM

— PubChem BioAssay (NCI)
